One may read the solubility as the dissolved amount per volume that the medium holds.

For data set [1] the following is noted: 750 courses of oral therapy; cited from earlier work.
For data set [2] the following is noted: in vivo; cited from earlier work.
Data set [3] in a line: Solubility of THC in ethanol:water with or without permeation enhancer (HPLC). Conditions: ethanol:water 70:30 v/v, aqueous with cosolvent or surfactant or cyclodextrin, thermodynamic from solid.

For the molecule `CCCCCc1cc(O)c2c(c1)OC(C)(C)[C@@H]1CCC(C)=C[C@@H]21` [THC, tetrahydrocannabinol], the “poor or only partial response to THC, share of courses” value in data set [1] is “approximately 65%”. Besides, the “Plasma levels for therapeutic effects” value in data set [2] is on record as approximately 10 nanograms/ml. For the same molecule, in data set [3], the solubility at 24 h turned out to be 20.2 mg/mL.

The values are drawn from US6503532B1, “Pharmaceutical composition containing tetrahydrocannabinol and a transdermal/transcutaneous delivery method thereof” (Murty Pharmaceuticals, Inc., priority 2001, dated 2003).
